From ChEMBL document CHEMBL1147287, “Antitumor agents, 107. New cytotoxic 4-alkylamino analogues of 4'-demethyl-epipodophyllotoxin as inhibitors of human DNA topoisomerase II” (1989) come the findings set out here.

The target in test [1] is DNA topoisomerase 2-alpha (Homo sapiens) (UniProt P11388). The experiment in a line: Inhibition of human DNA topoisomerase 2 assessed as bacteriophage P4 DNA unknotting at 100 uM after 30 mins by agarose gel electrophoresis.
Test [2] has the same target. The experiment in a line: Inhibition of DNA topoisomerase 2 in human KB cells assessed as enzyme-[methyl-3H]thymidine-labeled DNA complex formation at 5 uM after 1 hr by K-SDS precipitation assay. The class given is cell-based.
The target is the same in test [3]. The experiment in a line: Inhibition of DNA topoisomerase 2 in human KB cells assessed as enzyme-[methyl-3H]thymidine-labeled DNA complex formation at 10 uM after 1 hr by K-SDS precipitation assay. The format is cell-based.
The subject of test [4] is KB. Kind of test: Cytotoxicity against human KB cells assessed as reduction in cell number after 3 days by crystal violet staining. The note with it: 72 h, read-out: ED50 (the source's name). The class given is functional.
For test [5], the target named is DNA topoisomerase 2-alpha (Homo sapiens) (UniProt P11388). The experiment in a line: Inhibition of human DNA topoisomerase 2 assessed as bacteriophage P4 DNA unknotting after 30 mins by agarose gel electrophoresis.
Test [6] is described as follows: Inhibition of microtubule polymerization.

≈ marks a conversion by molar mass, not a printed value. Calls of active or inactive are those of the source. The calls are words filed in the database; no cut-off is given here. Bounds are passed on as bounds.

Sequence of DNA topoisomerase 2-alpha (Homo sapiens) (P11388 whole entry): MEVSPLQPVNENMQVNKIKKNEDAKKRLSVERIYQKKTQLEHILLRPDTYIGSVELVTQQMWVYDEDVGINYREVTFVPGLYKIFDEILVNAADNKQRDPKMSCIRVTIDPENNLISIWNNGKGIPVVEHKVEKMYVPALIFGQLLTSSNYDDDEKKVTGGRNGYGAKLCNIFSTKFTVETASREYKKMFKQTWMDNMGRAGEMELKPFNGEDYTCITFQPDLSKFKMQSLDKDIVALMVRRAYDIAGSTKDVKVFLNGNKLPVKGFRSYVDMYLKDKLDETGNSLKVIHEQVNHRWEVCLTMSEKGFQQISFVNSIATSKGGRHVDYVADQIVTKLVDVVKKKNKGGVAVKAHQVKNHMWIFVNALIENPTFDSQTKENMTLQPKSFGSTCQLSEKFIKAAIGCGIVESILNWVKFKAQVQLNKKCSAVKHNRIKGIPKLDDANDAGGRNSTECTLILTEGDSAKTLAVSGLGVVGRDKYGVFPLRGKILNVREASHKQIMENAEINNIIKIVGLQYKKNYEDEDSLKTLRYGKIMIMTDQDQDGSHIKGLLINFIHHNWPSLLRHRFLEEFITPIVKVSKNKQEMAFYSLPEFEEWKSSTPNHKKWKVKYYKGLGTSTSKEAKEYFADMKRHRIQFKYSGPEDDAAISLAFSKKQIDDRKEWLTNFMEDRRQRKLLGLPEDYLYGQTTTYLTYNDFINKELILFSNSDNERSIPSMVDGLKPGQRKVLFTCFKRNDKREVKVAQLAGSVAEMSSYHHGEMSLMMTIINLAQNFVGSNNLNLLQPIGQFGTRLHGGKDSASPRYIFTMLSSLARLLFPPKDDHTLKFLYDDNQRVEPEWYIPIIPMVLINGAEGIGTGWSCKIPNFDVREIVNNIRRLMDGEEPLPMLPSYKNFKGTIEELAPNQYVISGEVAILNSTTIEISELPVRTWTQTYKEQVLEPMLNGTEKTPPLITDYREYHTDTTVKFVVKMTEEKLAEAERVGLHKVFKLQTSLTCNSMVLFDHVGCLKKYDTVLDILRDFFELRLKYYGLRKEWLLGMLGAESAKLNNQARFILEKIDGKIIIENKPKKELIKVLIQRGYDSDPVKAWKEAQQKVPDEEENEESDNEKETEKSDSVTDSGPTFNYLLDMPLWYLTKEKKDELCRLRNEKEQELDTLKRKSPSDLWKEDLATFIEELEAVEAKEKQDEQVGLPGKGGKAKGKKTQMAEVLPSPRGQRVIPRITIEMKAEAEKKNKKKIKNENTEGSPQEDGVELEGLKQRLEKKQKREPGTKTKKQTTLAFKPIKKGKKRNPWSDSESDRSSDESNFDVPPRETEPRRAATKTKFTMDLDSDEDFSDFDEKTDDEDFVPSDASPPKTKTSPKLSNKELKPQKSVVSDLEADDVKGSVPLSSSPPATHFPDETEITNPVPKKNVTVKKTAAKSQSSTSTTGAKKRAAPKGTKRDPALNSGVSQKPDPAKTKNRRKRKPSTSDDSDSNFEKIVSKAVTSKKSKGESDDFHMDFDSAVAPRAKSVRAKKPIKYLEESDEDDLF

As usually defined, the inhibition is the change of the read-out against control, counted positive when it falls. Turning to `COc1cc([C@@H]2c3cc4c(cc3[C@@H](O[C@@H]3O[C@@H]5CO[C@@H](C)O[C@H]5[C@H](O)[C@H]3O)[C@H]3COC(=O)[C@H]23)OCO4)cc(OC)c1O` [ETOPOSIDE], the inhibition in test [1] was above 75%; in test [2] it was 56.2%; in test [3], 100%. Besides, the EC50 in test [4] is 0.16 µg/mL (≈ 0.272 µM). Also, the ID50 in test [5] turned out to be 50 µM.
For `COc1cc([C@@H]2c3cc4c(cc3[C@@H](O)[C@H]3COC(=O)[C@H]23)OCO4)cc(OC)c1O` [4'-DEMETHYLEPIPODOPHYLLOTOXIN], the inhibition in test [1] was determined as 50%; in test [3], 42.2%. Besides, the EC50 in test [4] amounted to 0.34 µg/mL (≈ 0.849 µM).
For `COCCN[C@@H]1c2cc3c(cc2[C@@H](c2cc(OC)c(O)c(OC)c2)[C@H]2C(=O)OC[C@@H]21)OCO3`, the values for the inhibition in test [1] and in test [3] were 75% and 111%, respectively. The EC50 in test [4] was above 4 µg/mL.
Take `COc1cc([C@@H]2c3cc4c(cc3[C@H](O)[C@H]3COC(=O)[C@H]23)OCO4)cc(OC)c1O`: the inhibition in test [1] was 25%; in test [3] it was 3.3%. In addition, the EC50 in test [4] is 0.045 µg/mL (≈ 0.112 µM).
The corresponding values for `COc1cc([C@@H]2c3cc4c(cc3[C@@H](NCCCO)[C@H]3COC(=O)[C@H]23)OCO4)cc(OC)c1O` are 50%, 89.2% and 4 µg/mL (≈ 8.74 µM).
In the case of `COc1cc([C@@H]2c3cc4c(cc3[C@@H](NCC(C)O)[C@H]3COC(=O)[C@H]23)OCO4)cc(OC)c1O` (stereo not given in full), the figures for the inhibition in test [1] and in test [2] were above 75% and 83.9%, respectively. The EC50 in test [4] stood at 3.6 µg/mL (≈ 7.87 µM). Besides, the ID50 in test [5] stood at 25 µM.
As for `CCCN[C@@H]1c2cc3c(cc2[C@@H](c2cc(OC)c(O)c(OC)c2)[C@H]2C(=O)OC[C@@H]21)OCO3`, the inhibition in test [1] came out at 50%; in test [3], 69.7%. In addition, in test [4], the EC50 is below 0.4 µg/mL.
Consider `COc1cc([C@@H]2c3cc4c(cc3[C@@H](N)[C@H]3COC(=O)[C@H]23)OCO4)cc(OC)c1O`, for which the inhibition in test [1] was found to be 50%; in test [3] it was 36.4%. Besides, the EC50 in test [4] is 0.19 µg/mL (≈ 0.476 µM).
With `COc1cc([C@@H]2c3cc4c(cc3[C@H](NCCO)[C@H]3COC(=O)[C@H]23)OCO4)cc(OC)c1O`, in test [3], the inhibition was 0%. In test [4], the EC50 was above 1 µg/mL.
As to `COc1cc([C@@H]2c3cc4c(cc3[C@@H](NCCO)[C@H]3COC(=O)[C@H]23)OCO4)cc(OC)c1O`, the figures for the inhibition in test [1], in test [2] and in test [3] were above 75%, 70.1% and 121%, respectively. The EC50 in test [4] stood at 1.6 µg/mL (≈ 3.61 µM). Besides, the ID50 in test [5] is 50 µM.
As for `COc1cc([C@@H]2c3cc4c(cc3[C@@H](NC(C)CO)[C@H]3COC(=O)[C@H]23)OCO4)cc(OC)c1O` (stereo not given in full), the inhibition was above 75% in test [1] and 89.3% in test [2]. Further, the EC50 in test [4] was determined as 2.3 µg/mL (≈ 5.03 µM). The ID50 in test [5] amounted to 25 µM.
On to `COc1cc([C@@H]2c3cc4c(cc3[C@H](O)[C@H]3COC(=O)[C@H]23)OCO4)cc(OC)c1OC`, for which the outcome in test [6] was inactive.
For the compound `C=CCN[C@@H]1c2cc3c(cc2[C@@H](c2cc(OC)c(O)c(OC)c2)[C@H]2C(=O)OC[C@@H]21)OCO3`, the values for the inhibition in test [1] and in test [3] were 75% and 84.2%, respectively. In addition, the EC50 in test [4] was determined as 3.4 µg/mL (≈ 7.74 µM).
As for `COc1cc([C@@H]2c3cc4c(cc3[C@H](N)[C@H]3COC(=O)[C@H]23)OCO4)cc(OC)c1O`, the inhibition came out at 25% in test [1] and 8% in test [3]. Besides, in test [4], the EC50 came out at 0.25 µg/mL (≈ 0.626 µM).
